Data published in patent US20110306636A1, “OXAZOLE PYRIDINE DERIVATIVES USEFUL AS S1P1 RECEPTOR AGONISTS” (Merck Serono SA, priority 2009, published 2011).
Structures can show the parent of a compound that is named as a salt. Where two headings read alike, the source gives them in different places.

Key:
S1P1 = S1P1 (Homo sapiens, UniProt P21453); experiment: Receptor binding assay, [33P]sphingosine 1-phosphate competition, S1P1
Description: Membranes Preparation: Membranes were prepared from CHO cells expressing S1P1 or S1P3 for use in ligand and 35S-GTPγS binding studies. Cells were suspended in 50 mM TRIS, pH 7.4, 2 mM EDTA, 250 mM Sucrose (buffer A) and 1× Complete protease inhibitor cocktail (Roche), and disrupted at 4° C. by N2 decompression using a cell disruption bomb (Parr Instrument). Following centrifugation at 1000 RPM for 10 min at 4° C., the supernatant was diluted (2×) in buffer A and centrifuged again at 19000 RPM for 75 min at 4° C. The pellet was then suspended in 10 mM HEPES, pH 7.4, 1 mM EDTA, 250 mM Sucrose (Buffer B), and 1× Complete EDTA-free protease inhibitor cocktail and homogenized using a potter. Membranes were flash frozen in liquid N2 and stored at −80° C.
Receptor binding assay: [33P]sphingosine 1-phosphate (3000 Ci/mmol; American Radiolabeled Chemicals, Inc.) was added to test compounds in 20% DMSO by competition. Membranes and WGA SPA beads (GE Healthcare) were added to give a final volume of 100 μl in 96-well plates or 50 μl in 384-well plates with assay concentrations of 30 pM or 15 pM [33P]sphingosine 1-phosphate (respectively for S1P1 or S1P3), 50 mM HEPES, pH 7.5, 5 mM MgCl2, 100 mM NaCl, 0.4% fatty acid-free BSA, 1-5 μg/well of proteins in 96-well plates vs 0.6-1 μg/well of proteins in 384-well plates and 100 μg/well of WGA SPA beads in 96-well plates vs 75 μg/well of WGA SPA beads in 384-well plates. Binding was performed for 60 min at RT on a shaker and bound radioactivity was measured on a PerkinElmer 1450 MicroBeta counter. Triplicate samples were averaged and normalized as purcentage of inhibition relative to total binding (only DMSO in well) and non specific binding (1000-fold excess of unlabeled S1P). Binding data were analyzed using the GraphPad Prism program or Genedata software.

[1] = molecular target: T1, human S1P1 Receptor fused to the green fluorescent protein (EGFP) (Homo sapiens, UniProt P21453); experiment: Internalization of S1P1 in S1P1-U2OS cells by cell imaging analysis; assay type: cell-based; conditions: 1 hour incubation, 384-well
T1 construct: host or cells: U2OS (human bone osteosarcoma epithelial cells), CMV promoter, geneticin selection
T1 sequence (P21453 with tags, fused parts or gaps): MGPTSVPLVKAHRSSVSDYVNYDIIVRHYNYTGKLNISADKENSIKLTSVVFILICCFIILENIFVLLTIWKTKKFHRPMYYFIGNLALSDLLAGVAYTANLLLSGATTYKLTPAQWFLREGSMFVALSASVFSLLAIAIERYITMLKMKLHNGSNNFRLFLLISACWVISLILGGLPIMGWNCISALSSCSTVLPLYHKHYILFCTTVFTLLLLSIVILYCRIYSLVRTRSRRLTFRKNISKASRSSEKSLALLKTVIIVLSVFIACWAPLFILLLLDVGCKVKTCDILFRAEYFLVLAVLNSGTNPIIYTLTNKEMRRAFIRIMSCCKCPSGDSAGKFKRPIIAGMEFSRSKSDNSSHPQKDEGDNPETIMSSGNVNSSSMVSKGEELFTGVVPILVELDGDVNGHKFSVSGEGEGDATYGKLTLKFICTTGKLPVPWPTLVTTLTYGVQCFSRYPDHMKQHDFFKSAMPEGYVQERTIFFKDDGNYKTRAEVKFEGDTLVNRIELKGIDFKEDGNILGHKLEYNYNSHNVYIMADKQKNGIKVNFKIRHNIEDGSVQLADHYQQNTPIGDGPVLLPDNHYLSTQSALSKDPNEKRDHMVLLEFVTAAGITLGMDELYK
Description: Cellular Functional Assays: Internalization of Sphingosine-1-Phosphate Receptor 1 (S1P1) in a Human Cell Line (U2OS) in a 384-Well Format Using a Cell Imaging Analysis.
The S1P1 internalization assay was performed in 384 well plates (Corning® 384 black with clear bottom 3712) using S1P1-U2OS cells from BioImage (C039A), a human epithelial cell line (Human Bone Osteosarcoma Epithelial Cells). These cells expressed the human S1P1 Receptor fused to the green fluorescent protein (EGFP). A standard CMV promoter (cytomegalovirus promoter) controls the expression of S1P1-EGFP and continuous expression was maintained by addition of geneticin to the culture medium.
S1P1 Receptor desensitization induced the internalization of the membrane-localized S1P1-EGFP fusion protein to endosomes, which can be monitored by cell imaging analysis.
The cells are plated in low serum medium (Dulbecco's Modified Eagle Medium (DMEM) with Glutamax-1 and high glucose, 1% Penicillin/Streptomycin, 1% Fetal Calf Serum (FCS), 0.5 mg/ml Geneticin) overnight.
The next day, S1P1-U2OS cells are incubated in 20 μl serum free medium (DMEM with Glutamax-1 and high glucose, 0.1% of fatty-acid free Bovin Serum Albumin (BSA), 10 mM, N′-2-Hydroxyethylpiperazine-N′-2 ethanesulphonic acid (HEPES) 1M) for 2 hours at 37° C./5% CO2.
The cells are then treated with 4 μl compounds/agonists (6×/3% DMSO) for a total volume of 24 μl, and plates are incubated for 1 hour at 37° C./5% CO2.
S1P1-U2OS cells are fixed with 25 μl Paraformaldehyde 8% and stained with Hoechst 33345 dye (1:1000) for 20 minutes.
They were then washed 3 times with Phosphate Buffered Saline (PBS) and plates are sealed.
The internalization of the receptor S1P1-EGFP is measured on Cellomics by calculating the “spot count per object” (“object” corresponds to nuclear and “spot” corresponds to S1P1-EGFP receptor). Internalization data were observed thanks to vHCS View and analyzed using Genedata® software.

[2] = 96 well-plate, read-out: S1P1 binding IC50 (M) (96 well-plate)
[3] = 384 well-plate, read-out: S1P1 binding IC50 (M) (384 well-plate)

Sequence of S1P1 (P21453 whole entry, species assumed): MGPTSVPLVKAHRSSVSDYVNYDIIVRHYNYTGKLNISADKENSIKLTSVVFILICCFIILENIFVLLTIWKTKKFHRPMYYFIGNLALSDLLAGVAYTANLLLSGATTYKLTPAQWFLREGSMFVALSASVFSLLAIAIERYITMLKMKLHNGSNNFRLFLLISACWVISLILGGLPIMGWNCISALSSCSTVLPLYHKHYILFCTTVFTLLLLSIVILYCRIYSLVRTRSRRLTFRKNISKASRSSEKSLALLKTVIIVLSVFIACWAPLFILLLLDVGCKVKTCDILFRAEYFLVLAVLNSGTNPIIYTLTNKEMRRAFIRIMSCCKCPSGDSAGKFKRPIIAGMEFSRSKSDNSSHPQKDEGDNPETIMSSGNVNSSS

Row | Compound | IC50 (S1P1; [2]) | EC50 [1] | IC50 (S1P1; [3])
1 | COCc1cc(-c2nc(-c3cnc(N[C@H]4CCC[C@H]4C(=O)O)c(Cl)c3)no2)ccc1-c1ccccc1C (relative stereo) [Example 84, cis-2-(3-chloro-5-(5-(2-(methoxymethyl)-2′-methylbiphenyl-4-yl)-1,2,4-oxadiazol-3-yl)pyridin-2-ylamino)cyclopentanecarboxylic acid] | 1.35e-08 M | 427 nM | 
2 | COCc1cc(-c2nc(-c3ccc(Cl)nc3)no2)ccc1-c1ccccc1C [Example 40, 2-chloro-5-{5-[2-(methoxymethyl)-2′-methylbiphenyl-4-yl]-1,2,4-oxadiazol-3-yl}pyridine] | 5.49e-08 M | 307 nM | 
3 | COCc1cc(-c2nc(-c3ccc(NCCCO)nc3)no2)ccc1-c1ccccc1C [Example 41, 3-[(5-{5-[2-(methoxymethyl)-2′-methylbiphenyl-4-yl]-1,2,4-oxadiazol-3-yl}pyridin-2-yl)amino]propan-1-ol] | 6.72e-09 M | 84.2 nM | 1.72e-08 M
4 | COCc1cc(-c2nc(-c3cnc(N)c(Cl)c3)no2)ccc1N1CCCCC1C (centres unmarked) [Example 42, 3-chloro-5-{5-[3-(methoxymethyl)-4-(2-methylpiperidin-1-yl)phenyl]-1,2,4-oxadiazol-3-yl}pyridin-2-amine] | 2.89e-09 M | 47.9 nM | 
5 | COCc1cc(-c2nc(-c3ccc(NCC(C)O)nc3)no2)ccc1-c1ccccc1C (centres unmarked) [Example 44, 1-[(5-{5-[2-(methoxymethyl)-2′-methylbiphenyl-4-yl]-1,2,4-oxadiazol-3-yl}pyridin-2-yl)amino]propan-2-ol] | 4.22e-09 M | 56 nM | 3.03e-08 M
6 | COCc1cc(-c2nc(-c3ccc(NCCO)nc3)no2)ccc1-c1ccccc1Cl [Example 49, 2-[(5-{5-[2′-chloro-2-(methoxymethyl)biphenyl-4-yl]-1,2,4-oxadiazol-3-yl}pyridin-2-yl)amino]ethanol] | 3.71e-09 M | 61.5 nM | 2.4e-08 M

Other lines, results leading:

Row | IC50 (S1P1; [2]) | EC50 [1] | IC50 (S1P1; [3]) | Compound
7 | 5.28e-09 M | 198 nM | 9.48e-09 M | Cc1ccccc1-c1ccc(-c2nc(-c3cnc(NCCC(=O)O)c(Cl)c3)no2)cc1C(F)(F)F [Example 61, N-(3-chloro-5-{5-[2′-methyl-2-(trifluoromethyl)biphenyl-4-yl]-1,2,4-oxadiazol-3-yl}pyridin-2-yl)-beta-alanine, hydrochloride salt]
8 | 3.1e-09 M | 90.8 nM | 7.54e-09 M | COCc1cc(-c2nc(-c3cnc(NCCO)c(Cl)c3)no2)ccc1-c1ccccc1F [Example 62, 2-[(3-chloro-5-{5-[2′-fluoro-2-(methoxymethyl)biphenyl-4-yl]-1,2,4-oxadiazol-3-yl}pyridin-2-yl)amino]ethanol]
9 |  | 93.4 nM | 1.72e-08 M | Cc1cc(-c2nc(-c3cnc(NCCC(=O)O)c(Cl)c3)no2)ccc1-c1ccccc1C(F)(F)F [Example 70, N-(3-chloro-5-{5-[2-methyl-2′-(trifluoromethyl)biphenyl-4-yl]-1,2,4-oxadiazol-3-yl}pyridin-2-yl)-beta-alanine, hydrochloride salt]
10 |  | 173 nM | 1.47e-08 M | Cc1ccccc1-c1ccc(-c2nc(-c3cnc(NCCC(=O)O)c(Cl)c3)no2)cc1C [Example 73, N-{3-chloro-5-[5-(2,2′-dimethylbiphenyl-4-yl)-1,2,4-oxadiazol-3-yl]pyridin-2-yl}-beta-alanine, hydrochloride salt]
11 |  | 93.6 nM | 2.76e-08 M | Cc1cc(-c2nc(-c3ccnc(CN(C)CC(=O)O)c3)no2)ccc1-c1ccccc1C(F)(F)F [Example 80, 2-(methyl((4-(5-(2-methyl-2′-(trifluoromethyl)biphenyl-4-yl)-1,2,4-oxadiazol-3-yl)pyridin-2-yl)methyl)amino)acetic acid]
12 |  | 170 nM | 2.5e-08 M | Cc1cc(-c2nc(-c3ccc(CN(C)CC(=O)O)nc3)no2)ccc1-c1ccccc1C(F)(F)F [Example 81, 2-(methyl((5-(5-(2-methyl-2′-(trifluoromethyl)biphenyl-4-yl)-1,2,4-oxadiazol-3-yl)pyridin-2-yl)methyl)amino)acetic acid]
